Consider one compound from patent publication US20070037253A1, “Methods and compositions for treatment of arthritis and cancer” (priority 2003, published 2007).

Where a SMILES comes first, the peptide text is derived from it.

The target in this assay is collagenase I (MMP-1). The experiment in a line: Collagenase activity assay, collagen thin film (collagen type II substrate). Format: biochemical. The following applies: collagen thin film method, FIG. 2; read-out: IC50 (mean±SD), collagenase I (MMP-1). The protocol:
Collagenase activity was assayed by collagen thin film method using collagen type II as substrate. IC50 values were graphically determined from the inhibition curves, constructed on the basis of the in vitro results of collagenase assays. Results are the mean±SD of 3 separate experiments done in triplicates. (•), P-NT.II; (□), PIP [59-67] dimer; (Δ), PIP [59-67} monomer; (∇), LY 315920.
Collagenase activity assay: Using collagen thin film as the substrate, a quantitative method was established to measure the enzymatic activity of the MMPs (principally collagenase). Collagen type II (Sigma) solution (4 μL, 3 mg/mL in 0.012 N HCl) was added to each well of 96-well plates and precipitated by slowly increasing the pH with 4 μL of H2O and 8 μL of 0.012 N NaOH. The plate was dried at 23° C. for 24 hr, washed with H2O, and dried again at 23° C., resulting in a thin film containing 12 μg of collagen that was tightly bound to the bottom of the wells. Enzymatic reactions of the collagenase I (with and without peptide inhibitors) against the collagen films were carried out in quadruplicate at 24° C. for 16 h. The digested portion of the film was washed away, while the undigested portion was fixed for 3 h with 0.1% Coomassie brilliant blue R in 10% acetic acid and 45% methanol, and the wells washed and dried.

By IC50 is commonly meant the concentration that gives 50% inhibition.

For the compound `CC[C@H](C)[C@H](NC(=O)[C@H](CC(=O)O)NC(=O)[C@@H](N)C(C)C)C(=O)N[C@@H](Cc1c[nH]cn1)C(=O)N[C@H](C(=O)N[C@@H](Cc1c[nH]c2ccccc12)C(=O)N[C@@H](CC(=O)O)C(=O)NCC(=O)N[C@H](C(=O)N[C@H](C(=O)N[C@@H](CC(=O)O)C(=O)N[C@H](C(=O)N[C@@H](Cc1c[nH]cn1)C(=O)N[C@H](C(=O)N[C@@H](Cc1c[nH]c2ccccc12)C(=O)N[C@@H](CC(=O)O)C(=O)NCC(=O)N[C@H](C(=O)O)C(C)C)C(C)C)[C@@H](C)CC)C(C)C)C(C)C)C(C)C` [PIP [59-67] dimer] (H-VDIHVWDGVVDIHVWDGV-OH; N-terminus and C-terminus assumed), the IC50 was determined as 7.75 ± 1.11 µM.
